This is an account of results in PMC10732325 (ACS catalysis, 2023).

Test [1] has as its target VldE (Streptomyces hygroscopicus, UniProt Q15JG1, H182A). As to the kind of experiment: X-ray crystal structure. It is filed as binding. The conditions noted are these: apo crystals soaked with 10 mM GDP-glucose, only GDP found; pH 8.0.
In test [2] the target is VldE (Streptomyces hygroscopicus, UniProt Q15JG1, D158N). As to the kind of experiment: X-ray crystal structure. It is filed as binding. To be noted: apo crystals soaked with 10 mM GDP-glucose, only GDP found; pH 8.5.
Sequence of VldE (Streptomyces hygroscopicus, UniProt Q15JG1, D158N) (Q15JG1 whole entry D158N): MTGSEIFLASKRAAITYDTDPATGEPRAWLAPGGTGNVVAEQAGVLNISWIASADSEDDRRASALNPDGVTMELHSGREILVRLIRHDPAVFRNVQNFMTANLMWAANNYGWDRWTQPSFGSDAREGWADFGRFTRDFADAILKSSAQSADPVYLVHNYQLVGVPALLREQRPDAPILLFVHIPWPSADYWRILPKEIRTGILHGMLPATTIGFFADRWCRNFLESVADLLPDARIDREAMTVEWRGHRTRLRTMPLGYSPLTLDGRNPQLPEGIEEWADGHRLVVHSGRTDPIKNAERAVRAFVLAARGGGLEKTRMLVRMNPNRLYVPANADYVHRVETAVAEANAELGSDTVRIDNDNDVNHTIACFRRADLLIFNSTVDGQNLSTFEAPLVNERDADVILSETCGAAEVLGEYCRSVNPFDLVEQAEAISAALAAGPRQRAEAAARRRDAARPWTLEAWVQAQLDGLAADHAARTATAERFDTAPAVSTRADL

Sequence of VldE (Streptomyces hygroscopicus, UniProt Q15JG1, H182A) (Q15JG1 whole entry H182A): as the sequence (Q15JG1 whole entry D158N) above, with N158D, H182A counted along it

As to `Nc1nc2c(ncn2[C@@H]2O[C@H](COP(=O)(O)OP(=O)(O)O)[C@@H](O)[C@H]2O)c(=O)[nH]1` [GDP], the X-ray crystal structure entry at VldE [1] and on VldE [2] was “only the crystal structures of the two variants in complex with GDP were obtained” throughout.
